Measurements: PubChem BioAssay AID256 (DTP/NCI, 2004)
Values joined by “and” are separate entries in the source; they are usually repeats but may differ in a detail not shown here. Equal values may be shown once. Toxic doses and inconclusive results are not listed. The calls were made as follows: active = survival T/C of 150% or more; inactive = T/C below 125% in these data.

System: CD2F1 mice, L1210 leukemia ip, survival T/C
Assay: NCI In Vivo Anticancer Drug Screen. Data for tumor model L1210 Leukemia (intraperitoneal) in CD2F1 (CDF1) mice
Conditions: higher = longer survival
How it was run: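 Tumor-bearing mice (transplanted tumor) were split into treated and vehicle control groups, and the measured endpoint of each treated group was divided by that of its vehicle controls.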

[1] = endpoint: mean survival time, dose: 100.0 mg/kg/injection, schedule: Q01DX001 (ip), vehicle: saline with Tween-80
[2] = endpoint: mean survival time, dose: 200.0 mg/kg/injection, schedule: Q01DX001 (ip), vehicle: saline with Tween-80

Measured: T/C

CCCC(O)C(CC)[N+](=O)[O-] (configuration not stated)
inactive: [1] 102 % of control | [2] 98 % of control | endpoint: mean survival time, dose: 400.0 mg/kg/injection, schedule: Q01DX001 (ip), vehicle: saline with Tween-80 94 % of control

CC1CCCC2C(=O)OC(=O)C12 (configuration not stated)
inactive: endpoint: mean survival time, dose: 100.0 mg/kg/injection, schedule: Q04DX003 (ip), vehicle: Klucel (hydroxypropylcellulose) (HPC) 92 % of control | endpoint: mean survival time, dose: 200.0 mg/kg/injection, schedule: Q04DX003 (ip), vehicle: Klucel (hydroxypropylcellulose) (HPC) 98 % of control

CN(C)c1cc(C(C)(C)C)nc(C(C)(C)C)c1
inactive: endpoint: mean survival time, dose: 12.5 mg/kg/injection, schedule: Q04DX002 (ip), vehicle: saline 111 % of control | endpoint: mean survival time, dose: 25.0 mg/kg/injection, schedule: Q04DX002 (ip), vehicle: saline with Tween-80 98 % of control | endpoint: mean survival time, dose: 25.0 mg/kg/injection, schedule: Q04DX002 (ip), vehicle: saline 118 % of control | endpoint: mean survival time, dose: 50.0 mg/kg/injection, schedule: Q04DX002 (ip), vehicle: saline with Tween-80 95 % of control | endpoint: mean survival time, dose: 50.0 mg/kg/injection, schedule: Q04DX002 (ip), vehicle: saline 100 % of control | endpoint: mean survival time, dose: 100.0 mg/kg/injection, schedule: Q04DX002 (ip), vehicle: saline with Tween-80 95 % of control

O=C1c2ccccc2C(=O)c2c1cn1c2Cc2ccccc2C1
inactive: endpoint: median survival time, dose: 9.0 mg/kg/injection, schedule: Q01DX005 (ip), vehicle: Klucel (hydroxypropylcellulose) (HPC) 106 % of control | endpoint: median survival time, dose: 9.37 mg/kg/injection, schedule: Q01DX005 (ip), vehicle: other 106 % of control and 107 % of control | endpoint: median survival time, dose: 12.5 mg/kg/injection, schedule: Q01DX005 (ip), vehicle: Klucel (hydroxypropylcellulose) (HPC) 110 % of control | endpoint: median survival time, dose: 15.0 mg/kg/injection, schedule: Q01DX005 (ip), vehicle: Klucel (hydroxypropylcellulose) (HPC) 109 % of control | endpoint: median survival time, dose: 18.75 mg/kg/injection, schedule: Q01DX005 (ip), vehicle: other 114 % of control and 103 % of control | endpoint: median survival time, dose: 25.0 mg/kg/injection, schedule: Q01DX005 (ip), vehicle: Klucel (hydroxypropylcellulose) (HPC) 107 % of control | endpoint: median survival time, dose: 37.5 mg/kg/injection, schedule: Q01DX005 (ip), vehicle: other 114 % of control and 111 % of control | endpoint: median survival time, dose: 41.66 mg/kg/injection, schedule: Q01DX005 (ip), vehicle: Klucel (hydroxypropylcellulose) (HPC) 114 % of control | endpoint: median survival time, dose: 50.0 mg/kg/injection, schedule: Q01DX005 (ip), vehicle: Klucel (hydroxypropylcellulose) (HPC) 108 % of control | endpoint: median survival time, dose: 69.44 mg/kg/injection, schedule: Q01DX005 (ip), vehicle: Klucel (hydroxypropylcellulose) (HPC) 106 % of control | endpoint: median survival time, dose: 75.0 mg/kg/injection, schedule: Q01DX005 (ip), vehicle: other 114 % of control and 98 % of control | endpoint: median survival time, dose: 100.0 mg/kg/injection, schedule: Q01DX005 (ip), vehicle: Klucel (hydroxypropylcellulose) (HPC) 122 % of control | endpoint: median survival time, dose: 150.0 mg/kg/injection, schedule: Q01DX005 (ip), vehicle: other 110 % of control | endpoint: median survival time, dose: 200.0 mg/kg/injection, schedule: Q01DX005 (ip), vehicle: Klucel (hydroxypropylcellulose) (HPC) 107 % of control

O=C1c2cccc3cc([N+](=O)[O-])cc(c23)C(=O)N1CCN1CCCC1
inactive: endpoint: mean survival time, dose: 1.5 mg/kg/injection, schedule: Q01DX009 (ip), vehicle: saline with Tween-80 107 % of control | endpoint: mean survival time, dose: 1.5 mg/kg/injection, schedule: Q01DX009 (ip), vehicle: saline 100 % of control | endpoint: mean survival time, dose: 3.0 mg/kg/injection, schedule: Q01DX009 (ip), vehicle: saline with Tween-80 113 % of control | endpoint: mean survival time, dose: 3.0 mg/kg/injection, schedule: Q01DX009 (ip), vehicle: saline 100 % of control | endpoint: mean survival time, dose: 6.0 mg/kg/injection, schedule: Q01DX009 (ip), vehicle: saline 113 % of control | endpoint: mean survival time, dose: 12.0 mg/kg/injection, schedule: Q01DX009 (ip), vehicle: saline 115 % of control | endpoint: mean survival time, dose: 24.0 mg/kg/injection, schedule: Q01DX009 (ip), vehicle: saline with Tween-80 91 % of control | endpoint: mean survival time, dose: 24.0 mg/kg/injection, schedule: Q01DX009 (ip), vehicle: saline 111 % of control | endpoint: median survival time, dose: 1.56 mg/kg/injection, schedule: Q01DX009 (ip), vehicle: saline with Tween-80 96 % of control | endpoint: median survival time, dose: 3.12 mg/kg/injection, schedule: Q01DX009 (ip), vehicle: saline with Tween-80 101 % of control and 107 % of control | endpoint: median survival time, dose: 6.25 mg/kg/injection, schedule: Q01DX009 (ip), vehicle: saline with Tween-80 104 % of control and 107 % of control | endpoint: median survival time, dose: 12.5 mg/kg/injection, schedule: Q01DX009 (ip), vehicle: saline with Tween-80 117 % of control and 119 % of control | endpoint: median survival time, dose: 50.0 mg/kg/injection, schedule: Q01DX009 (ip), vehicle: saline with Tween-80 86 % of control

O=C(O)c1ccccc1F
inactive: [1] 96 % of control | [2] 107 % of control

CC(=O)c1ccccc1[N+](=O)[O-]
inactive: endpoint: mean survival time, dose: 100.0 mg/kg/injection, schedule: Q01DX009 (ip), vehicle: saline with Tween-80 94 % of control | endpoint: mean survival time, dose: 200.0 mg/kg/injection, schedule: Q01DX009 (ip), vehicle: saline with Tween-80 95 % of control
